Laboratory results: patent US7989629B2, “3-(4-{ [4-(4-{ [3-(3, 3-dimethyl-1-piperidinyl) propyl] oxy} phenyl)-1-piperidinyl] carbonyl}-1-naphthalenyl) propanoic or propenoic acid as H1 and H3 receptor antagonists for the treatment of inflammatory and/or allergic disorders” (Glaxo Group Limited, priority 2005, dated 2011)

Columns and labels:
[1] = Rat pharmacokinetics; assay type: in vivo
Protocol: Compounds are dosed to male CD Sprague Dawley rats by single intravenous or oral administration at a nominal dose level of 1 mg/kg and 3 mg/kg respectively. Compounds are formulated in 5% DMSO/45% PEG200/50% water. An intravenous profile is obtained by taking serial or terminal blood samples at 0.083, 0.25, 0.5, 1, 2, 4, and 7 hours post dose (for some studies 12 and 24 hour samples may be taken). An oral profile is obtained by taking serial or terminal blood samples at 0.25, 0.5, 1, 2, 4, 7 and 12 hours post dose (for some studies 24 and 30 hour samples may be taken). Blood samples are taken directly into heparinised tubes. Blood samples are prepared by protein precipitation and subjected to quantitative analysis by LC-MS/MS using compound-specific mass transitions. Drug concentration-time profiles are generated and non-compartmental PK analysis used to generate estimates of half-life, clearance, volume of distribution and oral bioavailability.

[2] = target: T1, human H1 receptor (Homo sapiens, UniProt P35367); experiment: Histamine H1 functional antagonist assay (FLIPR): determination of functional pKi values; assay type: cell-based; settings: functional antagonism, CHO cells, histamine at EC80; read-out: average pKi (pKb) at H1 (converted)
T1 sequence (P35367 whole entry): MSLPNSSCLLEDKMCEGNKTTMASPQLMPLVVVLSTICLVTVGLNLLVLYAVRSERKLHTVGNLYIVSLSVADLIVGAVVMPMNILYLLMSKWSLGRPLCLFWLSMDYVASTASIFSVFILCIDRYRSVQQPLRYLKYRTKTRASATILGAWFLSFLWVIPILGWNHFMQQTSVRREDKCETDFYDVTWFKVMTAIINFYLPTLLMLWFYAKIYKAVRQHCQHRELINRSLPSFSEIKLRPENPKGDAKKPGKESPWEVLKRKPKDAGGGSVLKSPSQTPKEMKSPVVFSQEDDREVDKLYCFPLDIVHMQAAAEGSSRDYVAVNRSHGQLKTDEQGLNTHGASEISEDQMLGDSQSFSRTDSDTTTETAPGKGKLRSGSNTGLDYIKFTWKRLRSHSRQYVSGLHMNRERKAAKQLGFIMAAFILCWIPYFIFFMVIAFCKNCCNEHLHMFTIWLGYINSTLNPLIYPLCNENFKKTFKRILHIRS
Excerpt: H1 Receptor Cell Line Generation and FLIPR Assay Protocol
1. Generation of Histamine H1 Cell Line
(§1) The human H1 receptor may be cloned using known procedures described in the literature [Biochem. Biophys. Res. Commun., 201(2):894 (1994)]. Chinese hamster ovary (CHO) cells stably expressing the human H1 receptor may be generated according to known procedures described in the literature [Br. J. Pharmacol., 117(6):1071 (1996)].
Histamine H1 Functional Antagonist Assay: Determination of Functional pKi Values […]
10 μl of test compound, diluted to the required concentration in Tyrodes buffer+probenecid (or 10 μl Tyrodes buffer+probenecid as a control) is added to each well and the plate incubated for 30 min at 37° C., 5% CO2. The plates are then placed into a FLIPR™ (Molecular Devices, UK) to monitor cell fluorescence (λex=488 nm, λEM=540 nm) in the manner described in Sullivan et al., (In: Lambert D G (ed.), Calcium Signaling Protocols, New Jersey: Humana Press, 1999, 125-136) before and after the addition of 10 μl histamine at a concentration that results in the final assay concentration of histamine being EC80.
Functional antagonism is indicated by a suppression of histamine induced increase in fluorescence, as measured by the FLIPR™ system (Molecular Devices). By means of concentration effect curves, functional affinities are determined using standard pharmacological mathematical analysis.

[3] = target: histamine H3 receptor (Homo sapiens, UniProt Q9Y5N1); experiment: Histamine H3 functional antagonist assay (GTPγS); assay type: biochemical; settings: functional antagonism, histamine at EC80; read-out: average pKi (pKb) at H3 (converted)
Sequence of histamine H3 receptor (Q9Y5N1 whole entry, species assumed): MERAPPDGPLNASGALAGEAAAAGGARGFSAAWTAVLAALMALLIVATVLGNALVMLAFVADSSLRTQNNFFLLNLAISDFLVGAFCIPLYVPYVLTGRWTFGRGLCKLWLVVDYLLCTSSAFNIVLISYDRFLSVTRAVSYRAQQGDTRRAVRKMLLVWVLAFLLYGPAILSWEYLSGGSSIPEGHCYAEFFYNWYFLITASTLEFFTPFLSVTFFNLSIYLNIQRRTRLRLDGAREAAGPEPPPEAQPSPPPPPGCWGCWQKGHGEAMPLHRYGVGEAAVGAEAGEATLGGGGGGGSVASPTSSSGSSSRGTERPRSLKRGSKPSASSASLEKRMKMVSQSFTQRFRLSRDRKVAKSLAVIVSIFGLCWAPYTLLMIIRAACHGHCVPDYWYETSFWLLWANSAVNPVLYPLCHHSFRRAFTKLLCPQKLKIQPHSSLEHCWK
Excerpt: 2. H3 Receptor Cell Line Generation, Membrane Preparation and Functional GTPγS Assay Protocols
Generation of Histamine H3 Cell Line
The histamine H3 cDNA is isolated from its holding vector, pcDNA3.1 TOPO (InVitrogen), by restriction digestion of plasmid DNA with the enzymes BamH1 and Not-1 and ligated into the inducible expression vector pGene (InVitrogen) digested with the same enzymes. The GeneSwitch™ system (a system wherein transgene expression is switched off in the absence of an inducer and switched on in the presence of an inducer) is performed as described in U.S. Pat. Nos. 5,364,791; 5,874,534; and 5,935,934. […]
10-14 days post selection, 10 nM Mifepristone (InVitrogen) is added to the culture medium to induce the expression of the receptor. […] Receptor bound antibody is detected by incubation of the cells for 60 min on ice with a goat anti rabbit antibody, conjugated with Alexa 488 fluorescence marker (Molecular Probes). Following two further washes with Sorting Medium, cells are filtered through a 50 μm Filcon™ (BD Biosciences) and are then analysed on a FACS Vantage SE Flow Cytometer fitted with an Automatic Cell Deposition Unit, Control cells are non-induced cells treated in a similar manner. […]

[4] = Dog pharmacokinetics; assay type: in vivo; settings: combined data for Example 1 and 3; for half-life / bioavailability: male, Beagle, whole blood; for bioavailability: po, 2 mg/kg
Protocol: Compounds are dosed to male Beagle dogs by single intravenous or oral administration at a nominal dose level of 1 mg/kg and 2 mg/kg respectively. The study is carried out according to a crossover design such that the same dog is used for both dosing events and the dosing events occurred 1 week apart. Compounds are formulated in 5% DMSO/45% Peg200/50% water. An intravenous profile is obtained by taking serial blood samples at 0.083, 0.25, 0.5, 0.75, 1, 2, 4, 6 and 12 hr post dose (for some studies 24 hour samples may be taken). An oral profile is obtained by taking serial blood samples at 0.25, 0.5, 0.75, 1, 2, 4, 6, 12 and 24 hr post dose. Blood samples are taken directly into heparinised tubes. Blood samples are prepared by protein precipitation and subjected to quantitative analysis by LC-MS/MS using compound-specific mass transitions. Drug concentration-time profiles are generated and non-compartmental PK analysis used to generate estimates of half-life, clearance, volume of distribution and oral bioavailability.

[5] = target: T1, human H1 receptor; experiment: Histamine H1 functional antagonist assay (FLIPR): determination of antagonist pA2; assay type: cell-based
Protocol: as §1
Histamine H1 Functional Antagonist Assay: Determination of Antagonist pA2
The histamine H1 receptor expressing CHO cells is seeded into non-coated black-walled clear bottom 96-well tissue culture plates as described above. […]
The plates are then placed into a FLIPR™ (Molecular Devices, UK) to monitor cell fluorescence (λex=488 nm, λEM=540 nm) in the manner described in Sullivan et al., (In: Lambert D G (ed.), Calcium Signaling Protocols, New Jersey: Humana Press, 1999, 125-136) before and after the addition of 50 μl histamine over a concentration range of 1 mM-0.1 nM. […] The antagonist pA2 is calculated using the following standard equation: pA2=log(DR−1)−log [B] where DR=dose ratio, defined as EC50antagonist-treated/EC50control and [B]=concentration of antagonist.

[6] = test system: histamine-induced wheals; experiment: In vivo anti-inflammatory wheal and flare model; set-up: species or system guinea pig
Protocol: In Vivo Anti-Inflammatory Wheal and Flare Model
Male Dunkin-Hartley guinea pigs 500 g-1 kg are dosed with test compound or vehicle using a 1 ml syringe into the oral cavity (0.5 ml/kg p.o.), or via a marginal ear vein (0.33 ml/kg i.v.). Compounds are formulated in 5% DMSO/45% PEG200/50% water.
Either 2 hr after oral or 15 min after intravenous compound administration, guinea pigs are anaesthetised with isoflurane (5%, […] O2), and receive Evans blue solution (2% in saline), 0.33 ml/kg i.v. via a marginal ear vein.
Immediately after Evans blue administration, and whilst still under isoflurane, animals are placed in a prone position, and an area of the back shaved. […]
Following histamine challenge, the animals are allowed to recover from anaesthesia and, 30 minutes later are euthanased with an i.p. overdose of pentobarbitone. The dorsal skin is carefully removed and wheal areas (stained blue) measured from the inner skin surface by taking two perpendicular diameters using engineer's calipers, and calculating the average radius. This value is used to calculate the area of each wheal, and the mean value of all histamine-induced wheals is subsequently calculated for each animal. […]
Dose-response curves are constructed for each test compound and ID50 values may be determined for each route of administration (oral and intravenous).

SMILES	plasma clearance [1]	half-life ([1]; male, CD Sprague Dawley, whole blood, 1 mg/kg, IV route) [h]	bioavailability ([1]; male, CD Sprague Dawley, whole blood, po, 3 mg/kg) [%]	Ki [2] [nM]	Ki [3] [nM]	plasma clearance [4]	half-life [4] [h]	bioavailability [4] [%]	Kb [5] [nM]	ID50 in the wheal and flare model ([6]; i.v.)	ID50 in the wheal and flare model ([6]; oral)
CC1(C)CCCN(CCCOc2ccc(C3CCN(C(=O)c4ccc(CCC(=O)O)c5ccccc45)CC3)cc2)C1 [Example 1, 3-(4-{[4-(4-{[3-(3,3-dimethyl-1-piperidinyl)propyl]oxy}phenyl)-1-piperidinyl]carbonyl}-1-naphthalenyl)propanoic acid, formic acid (1:1)]	low	4 to 5	~59	~15.8	~39.8	low	~3	~60	–	–	–
CC1(C)CCCN(CCCOc2ccc(C3CCN(C(=O)c4ccc(CCC(=O)O)c5ccccc45)CC3)cc2)C1.Cl [Example 3, 3-(4-{[4-(4-{[3-(3,3-dimethyl-1-piperidinyl)propyl]oxy}phenyl)-1-piperidinyl]carbonyl}-1-naphthalenyl)propanoic acid, hydrochloride salt]	–	–	–	~12.6	~50.1	low	~3	~60	~7.94	about 0.6 mg/Kg	about 2.8 mg/Kg
